Measured values reported in patent publication US20030055065A1, “Tricyclic amide and urea compounds useful for inhibition of G-protein function and for treatment of proliferative diseases” (priority 1993, published 2003).
Values joined by “and” are separate entries in the source; they are usually repeats but may differ in a detail not shown here. Equal values may be shown once. Read-outs that look alike come from different tables or passages of the source.

Key:
[1] = test system: Ras-CVLS processing in COS monkey kidney cells; test: COS cell assay: Ras-CVLS processing (Western blot); type: cell-based; settings: COS cells; for IC50: read-out: Inhibition of Ras Processing IC50
Experimental: 2. […] Effect of farnesyl protein transferase inhibitors on Ras processing and on disordered cell growth induced by transforming Ras. COS monkey kidney cells were transfected by electroporation with the plasmid pSV-SPORT (Gibco/BRL) containing a cDNA insert encoding either Ras-CVLS or Ras-CVLL, leading to transient overexpression of a Ras substrate for either farnesyl protein transferase or geranylgeranyl protein transferase I, respectively (see above). […] After 24 hours, media was removed and fresh media containing the appropriate drugs was re-added. 48 hours after electroporation cells were examined under the microscope to monitor disordered cell growth induced by transforming Ras. Cells expressing transforming Ras become more rounded and refractile and overgrow the monolayer, reminiscent of the transformed phenotype. […] Cells were lysed by homogenization and cell debris was removed by centrifugation at 2000×g for 10 min. Cellular protein was precipitated by addition of ice-cold trichloroacetic acid and redissolved in 100 μl of SDS-electrophoresis sample buffer. […] Proteins resolved on the gels were electroblotted onto nitrocellulose membranes for immunodetection. […] E., et al., (1982), Monoclonal antibodies to the p21 products of the transforming gene of Harvey murine sarcome virus and of the cellular ras gene family, J. Virol. 43: 294-304), in PBS containing 1% fetal calf serum for one hour at room temperature. After washing, membranes were incubated for one hour at room temperature with a 1:5000 dilution of secondary antibody, rabbit anti-rat IgG conjugated to horseradish peroxidase, in PBS containing 1% fetal calf serum.

[2] = test system: Normal human HEPM fibroblasts; test: Cell Mat Assay: density of mat cells (mIC50); type: cell-based
Experimental: (§1) Compound-induced colony inhibition was assayed by addition of serial dilutions of compound directly to the growth medium 24 h after tumor cell planting, and incubating cells for an additional 14 d to allow colony formation. Assays were terminated by rinsing monolayers twice with phosphate-buffered saline (PBS), fixing the monolayers with a 1% glutaraldehyde solution in PBS, then visualizing tumor cells by staining with X-Gal (Price, J., et al., Lineage analysis in the vertebrate nervous system by retrovirus-mediated gene transfer, Proc. Natl. Acad. Sci.84, 156-160(1987)). […] Both IC50 values were obtained by determining the density of tumor cells and mat cells by visual inspection and enumeration of cells per colony and the number of colonies under the microscope.

[3] = test system: T24-BAG4 human bladder carcinoma cells expressing an activated H-ras gene; test: Cell Mat Assay: tumor cell colony inhibition (tIC50); type: cell-based; settings: inhibition of tumor cell growth
Experimental: as §1

[4] = biological target: T1, farnesyl protein transferase (FPT), partially purified from rat brain (Rattus norvegicus, UniProt Q02293+Q04631); test: Inhibition of farnesyl protein transferase (transfer of [3H]farnesyl to Ras-CVLS); type: biochemical
T1 construct: were partially purified from rat brain by ammonium sulfate fractionation followed by Q-Sepharose
T1 sequence (Q02293 whole entry, one chain of several): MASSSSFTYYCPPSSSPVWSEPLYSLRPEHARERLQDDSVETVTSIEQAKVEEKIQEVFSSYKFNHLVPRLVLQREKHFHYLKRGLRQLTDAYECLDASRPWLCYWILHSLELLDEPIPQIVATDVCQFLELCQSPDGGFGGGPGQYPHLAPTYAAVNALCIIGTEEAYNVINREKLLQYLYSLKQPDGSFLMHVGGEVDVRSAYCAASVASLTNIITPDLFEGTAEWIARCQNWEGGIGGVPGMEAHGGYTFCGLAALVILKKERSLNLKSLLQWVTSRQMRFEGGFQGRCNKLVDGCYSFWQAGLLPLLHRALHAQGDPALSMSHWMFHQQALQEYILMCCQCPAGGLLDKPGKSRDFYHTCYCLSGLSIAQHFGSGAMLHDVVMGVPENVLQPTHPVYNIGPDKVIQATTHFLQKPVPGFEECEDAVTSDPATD
Procedure, shortened: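 Transfer of [3H]farnesyl onto E. coli-expressed, His6-tagged Ras-CVLS was measured after 30 min at room temperature. Radiolabelled Ras was TCA-precipitated on ice and filter-harvested, and inhibition was expressed as percent of DMSO control.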

[5] = Ras-CVLS farnesylation, partially purified rat brain FPT, read-out: FPT IC50
[6] = FPT IC50, Ras-CVLS farnesylation, partially purified rat brain FPT
[7] = enzyme inhibition, read-out: FPT IC50

| IC50 ([3]; Homo sapiens) [µM] | IC50 [4, 5] | Compound | IC50 ([1]; Primates, COS) [µM] | IC50 ([2]; Homo sapiens, Fibroblast) [µM] | also measured |
| --- | --- | --- | --- | --- | --- |
| < 3.1 |  | O=C(Cc1ccncc1)N1CCC(=C2c3ccc(Br)cc3CCc3cccnc32)CC1 [181 (5.48)] | 1.1 | > 50 |  |
| 37 | 1.34 µM | O=C(Nc1cccnc1)N1CCN(C2c3ccc(Cl)cc3CCc3cccnc32)CC1 (stereo not shown) [187 (6.7)] | 4.8 | > 50 | IC50 [3]: 25 µM |
| 37 | 0.46 µM | O=C(Nc1cccnc1)N1CCN([C@H]2c3ccc(Cl)cc3CCc3cccnc32)CC1 [224 (6.11)] | 7.3 | > 50 |  |
| 12.5 | 1.6 µM | CC(=O)N1CCC(CC(=O)N2CCN([C@H]3c4ccc(Cl)cc4CCc4cccnc43)CC2)CC1 [225 (5.99)] | 6.2 | > 50 |  |
| 12.5 | 1.8 µM | CC(=O)N1CCC(C(=O)N2CCN([C@H]3c4ccc(Cl)cc4CCc4cccnc43)CC2)CC1 [226 (5.101)] | 6.5 | > 50 |  |
|  |  | O=C(Cc1ccncc1)N1CCC(=C2c3ccc(Cl)cc3CCc3ccc[n+]([O-])c32)CC1 [230 (5.105)] |  |  | IC50 [1]: > 20 µM; IC50 [2]: > 50 µM; IC50 [3]: 37 µM |
|  | 0.19 µM | O=C(Cc1ccncc1)N1CCC(=C2c3ccc(Cl)cc3CCc3c(Cl)ccnc32)CC1 [248 (5.123)] |  |  | IC50 [1]: 4.6 µM; IC50 [2]: > 50 µM; IC50 [3]: 18 µM |
| 18 | 1.2 µM | O=C(Cc1ccncc1)N1CCC(=C2c3ccc(Cl)cc3CCc3ccc(Cl)nc32)CC1 [248 (5.124)] | 2.05 | > 50 |  |
|  |  | O=C(Cc1cccnc1)N1CCN(C2c3ccc(Cl)cc3CCc3cccnc32)CC1 (stereo not shown) [Example 78] | < 4.6 |  | IC50 [4, 6]: 1 µM and 0.42 µM; IC50 ([4]; FPT IC50, enzyme inhibition): 2.19 µM and 0.53 µM and 0.74 µM and 0.76 µM and 0.97 µM |
| 3.1 | 0.16 µM and 0.36 µM | O=C(Cc1ccncc1)N1CCC(C2c3ccc(Cl)cc3CCc3cccnc32)CC1 (stereo not shown) [Example 82, 4-(8-chloro-6,11-dihydro-5H-benzo-[5,6]cyclohepta[1,2-b]pyridin-11-yl)-1-[(4-pyridinyl)acetyl]-piperidine] | 1.2 | 40 |  |
|  | 0.59 µM | CS(=O)(=O)OCC(C(=O)N1CCC(=C2c3ccc(Cl)cc3CCc3cccnc32)CC1)c1ccccc1 (stereo not shown) [Example 83, 8-chloro-11-[1-(2-methanesulfonyl-oxy-1-phenylethylcarbonyl)-4-piperidylidene]-6,11-dihydro-5H-benzo-[5,6]cyclohepta-[1,2-b]pyridine] | 7.4 |  |  |
|  | 0.29 µM | CC(=O)SCC(C(=O)N1CCC(=C2c3ccc(Cl)cc3CCc3cccnc32)CC1)c1ccccc1 (stereo not shown) [Example 84] | > 9.7 |  |  |
|  | 2 µM | O=C(CN1C(=O)c2ccccc2S1(=O)=O)N1CCC(=C2c3ccc(Cl)cc3CCc3cccnc32)CC1 [Example 85] | > 37.4 |  |  |
| 50 | 1.14 µM | O=C(Cc1ccncc1)N1CCC(=C2c3ccccc3CCc3ccccc32)CC1 [Example 87] | 12.7 | > 50 |  |
| 6.3 | 1.8 µM | CC(=O)N1CCC(C(=O)N2CCC(=C3c4ccc(Cl)cc4CCc4cccnc43)CC2)CC1 [Example 89] | 6.3 | > 25 |  |
|  |  | O=C(C1CCCC1)N1CCC(=C2c3ccc(Cl)cc3CCc3cccnc32)CC1 [Example 157] | 4.5 |  |  |
| 12.5 |  | CC(C)(C(=O)N1CCN(C2c3ccc(Cl)cc3CCc3cccnc32)CC1)c1cccnc1 (stereo not shown) [Example 198] | 6.1 | > 50 |  |

| IC50 ([3]; Homo sapiens) [µM] | IC50 [4, 5] | Compound | IC50 ([1]; Primates, COS) [µM] | IC50 ([2]; Homo sapiens, Fibroblast) [µM] | also measured |
| --- | --- | --- | --- | --- | --- |
|  | 1.3 µM | O=C(Nc1cccnc1)N1CCC(=C2c3ccc(Cl)cc3CCc3c(Cl)ccnc32)CC1 [Example 261] | 9.1 |  |  |
|  | 1.33 µM | O=C(Nc1cccnc1)N1CCC(C2c3ccc(Cl)cc3C=Cc3cccnc32)CC1 (stereo not shown) [Example 267] | 12.5 |  |  |
| 6.25 |  | O=C(Cc1ccncc1)N1CCC(C2c3ccc(Cl)cc3C=Cc3cccnc32)CC1 (stereo not shown) [Example 269] | 0.69 | 12.5 |  |
|  | 0.91 µM and 1.38 µM | O=C(Nc1cccnc1)N1CCC(C2c3ccc(Cl)cc3C=Cc3c(Cl)ccnc32)CC1 (stereo not shown) [Example 274] | 8 |  |  |
|  | 0.88 µM | CC(C)(C(=O)N1CCC(=C2c3ccc(Cl)cc3C=Cc3cccnc32)CC1)c1cccnc1 [Example 278] | 2.6 |  |  |
|  | 2.4 µM | O=C(C(=O)N1CCC(=C2c3ccc(Cl)cc3CCc3cccnc32)CC1)c1ccc([N+](=O)[O-])cc1 [Example 295] | 20.8 |  |  |
|  | 0.22 µM and 0.14 µM | O=C(Cc1ccncc1)N1CCC(=C2c3ccc(Cl)cc3C=Cc3cccnc32)CC1 [Example 307] |  |  | IC50 [2]: 50 µM; IC50 [3]: 12.5 µM |
|  | 3.6 µM | O=C(Cc1ccncc1)N1CCC(=C2c3cc(F)ccc3CCc3cccnc32)CC1 [Example 310] |  |  | IC50 [2]: > 50 µM; IC50 [3]: 25 µM |
| 37 | 4.1 µM | O=C(NCc1ccccc1)N1CCC(C2c3ccc(Cl)cc3CCc3cccnc32)CC1 (stereo not shown) [Example 318] |  | 37 |  |
| 6.25 | 6 µM | O=C(Cc1ccc(O)c(O)c1)N1CCC(C2c3ccc(Cl)cc3CCc3cccnc32)CC1 (stereo not shown) [Example 321] |  | > 50 |  |
| 12.5 |  | Nc1cc2c(nc1Br)C(=C1CCN(C(=O)Cc3ccncc3)CC1)c1ccc(Cl)cc1CC2 [Example 405] |  | > 25 | IC50 [4, 7]: 1.3 µM |
| 10 |  | O=C(Cc1cccnc1)N1CC=C(C2c3ccc(Cl)cc3CCc3cccnc32)CC1 (stereo not shown) [Example 410-D] | 18.5 | > 50 |  |
| > 25 |  | CC(C)(C(=O)N1CCC(=C2c3ccc(Cl)cc3CCc3cccnc32)CC1)c1cc[n+]([O-])cc1 [Example 411-E] |  | > 25 | IC50 [4, 7]: 1.14 µM |
|  |  | CN1CCC(CC(=O)N2CCN(C3c4ccc(Cl)cc4CCc4cc(Br)cnc43)CC2)CC1 (stereo not shown) [Example 425-O] |  | 6.25 | Toxicity in COS cells at the concentration in parentheses ([1]; (10) μM): tox (10); IC50 [4, 7]: 0.17 µM and 0.14 µM and 0.122 µM and 0.118 µM and 0.178 µM |
| 12.5 |  | CC(C)(C(=O)N1CCN(C2c3ccc(Cl)cc3CCc3cccnc32)CC1)c1ccncc1 (stereo not shown) [Example 425] |  | > 25 | IC50 [4, 7]: 1.74 µM |
|  |  | O=C(Cc1ccncc1)N1CCN(C2c3ccc(Cl)cc3CCc3cc(Br)cnc32)CC1 (stereo not shown) [Example 426] | 0.38 | 25 | IC50 [2]: > 12.5 µM; IC50 [4, 7]: 0.012 µM |
|  |  | Cc1ccc2c(c1)CCc1cccnc1C2=C1CCN(C(=O)Cc2ccncc2)CC1 [Example 434] | < 5 |  | FPT inhibition at the concentration in parentheses ([4]; (0.48) μM): 70 (0.48); IC50 [4, 7]: 0.26 µM |

| Compound | IC50 ([3]; Homo sapiens) [µM] | IC50 [4, 5] | IC50 ([1]; Primates, COS) [µM] | IC50 ([2]; Homo sapiens, Fibroblast) [µM] | also measured |
| --- | --- | --- | --- | --- | --- |
| O=C(Cc1ccc[n+]([O-])c1)N1CCN(C2c3ccc(Cl)cc3CCc3ccc[n+]([O-])c32)CC1 (stereo not shown) [185 (5.61)] |  | 3.8 µM | > 20 |  |  |
| O=C(N[C@@H](Cc1ccc(O)cc1)C(=O)N1CCC(=C2c3ccc(Cl)cc3CCc3cccnc32)CC1)OCc1ccccc1 [Example 46] |  | 1.2 µM |  |  | IC50 [1]: > 8 µM; IC50 [2]: > 50 µM |
| CC(C)(C)C(=O)N1CCC(=C2c3ccc(Cl)cc3CCc3cccnc32)CC1 [Example 53] |  | 1.5 µM |  |  | IC50 [1]: > 13 µM; IC50 [2]: > 50 µM; IC50 [3]: 25 µM |
| O=C(Cc1cccnc1)N1CCN(C2c3ccc(Cl)cc3CCc3c(Cl)ccnc32)CC1 (stereo not shown) [Example 355] | 8 |  |  | > 25 | IC50 [4, 6]: 0.88 µM |
| Nc1cnc2c(c1)C=Cc1cc(Cl)ccc1C2C1CCN(C(=O)Cc2ccncc2)CC1 (stereo not shown) [Example 402-A] | 3.1 |  |  | > 25 | IC50 ([4]; FPT IC50, enzyme inhibition): 0.45 µM and 0.56 µM |
| O=C(Cc1cc[n+]([O-])cc1)N1CCN(C2c3ccc(Cl)cc3CCc3cccnc32)CC1 (stereo not shown) [Example 425-B] | 12.5 |  |  | > 25 | IC50 [4, 7]: 0.74 µM |
| O=C(Cc1cc[n+]([O-])cc1)N1CCN(C2c3ccc(Cl)cc3CCc3cc(Br)cnc32)CC1 (stereo not shown) [Example 425-H] | < 1.6 |  |  | > 25 | IC50 ([4]; FPT IC50, enzyme inhibition): 0.059 µM and 0.049 µM and 0.075 µM |
| O=C(Cc1ccc[n+]([O-])c1)N1CCN(C2c3ccc(Cl)cc3CCc3cc(Br)cnc32)CC1 (stereo not shown) [Example 425-K] | 6.25 |  |  | > 25 | IC50 ([4]; FPT IC50, enzyme inhibition): 0.4 µM and 0.41 µM |
